Values of other authors in patent US20190151294A1, “TREATMENT OF ALCOHOLISM AND DEPRESSION AND/OR DYSPHORIC MOOD USING IBUDILAST” (MEDICINOVA, INC., priority 2016, published 2019).

Tested on: P and HAD1 rats and mouse model of ethanol dependence
Conditions: in these models of elevated alcohol intake; cited from earlier work

| SMILES | selective reduction of ethanol drinking |
| --- | --- |
| CC[C@@H](C(N)=O)N1CCCC1=O [levatiracetam] | do not selectively reduce ethanol drinking |
| OCCOCCN1CCN(C2=Nc3ccccc3Sc3ccccc32)CC1 [quetiapine] | do not selectively reduce ethanol drinking |
